Test results published in US20260042731A1, “(2,4-DICHLOROPHENOXY)ACETIC ACID ANALOGS” (CORTEVA AGRISCIENCE LLC, priority 2022, published 2026).
Like-named read-outs stand apart in the source and are kept apart here.

Columns and labels:
[1] = system: Ambrosia artemisiifolia (AMBEL), common ragweed; experiment: Postemergence herbicide evaluation, growth of Ambrosia artemisiifolia (AMBEL); format: in vivo; details: Ambrosia artemisiifolia, post-emergence, read-out: AVE. AMBEL, percent reduction in plant size relative to the untreated control; for pest or weed control at 280 g/ha: 280 g ae/ha; for pest or weed control at 560 g/ha: 560 g ae/ha
[2] = system: Amaranthus rudis (AMATA), tall water hemp; experiment: Postemergence herbicide evaluation, growth of Amaranthus rudis (AMATA); format: in vivo; details: for pest or weed control at 280 g/ha / pest or weed control at 560 g/ha: Amaranthus tuberculatus, post-emergence, read-out: Ave. AMATA, percent reduction in plant size relative to the untreated control
[3] = system: Abutilon theophrasti (ABUTH), velvetleaf; experiment: Postemergence herbicide evaluation, growth of Abutilon theophrasti (ABUTH); format: in vivo; details: for AVE. ABUTH, percent reduction in plant size relative to the untreated control / pest or weed control at 280 g/ha: 280 g ae/ha; for pest or weed control at 560 g/ha / pest or weed control at 280 g/ha: Abutilon theophrasti, post-emergence, read-out: AVE. ABUTH, percent reduction in plant size relative to the untreated control; for pest or weed control at 560 g/ha: 560 g ae/ha
[4] = system: glyphosate resistant Conyza canadensis (L.) (ERICA), horseweed; experiment: Postemergence herbicide evaluation, growth of Conyza canadensis (ERICA); format: in vivo; details: Erigeron canadensis, post-emergence, read-out: Ave. ERICA, percent reduction in plant size relative to the untreated control; for pest or weed control at 280 g/ha: 280 g ae/ha; for pest or weed control at 560 g/ha: 560 g ae/ha
[5] = Volatility of compounds measured by thermogravimetric analysis (TGA); format: physicochemical
[6] = system: Chenopodium album (CHEAL), common lambsquarters; experiment: Postemergence herbicide evaluation, growth of Chenopodium album (CHEAL); format: in vivo; details: Chenopodium album, post-emergence, read-out: Ave. CHEAL, percent reduction in plant size relative to the untreated control; for pest or weed control at 280 g/ha: 280 g ae/ha; for pest or weed control at 560 g/ha: 560 g ae/ha
[7] = system: weeds ABUTH, AMATA, AMBEL, CHEAL, ERICA; experiment: Postemergence herbicide evaluation, overall average % weed control (ABUTH, AMATA, AMBEL, CHEAL, ERICA); format: in vivo; details: post-emergence, read-out: Overall Ave % Weed Control; for pest or weed control at 280 g/ha: 280 g ae/ha; for pest or weed control at 560 g/ha: 560 g ae/ha

Row | Structure (SMILES) | pest or weed control at 280 g/ha ([1]; 168 h, 7 DAA) [%] | pest or weed control at 560 g/ha ([1]; 168 h, 7 DAA) [%] | pest or weed control at 280 g/ha ([1]; 336 h, 14 DAA) [%] | pest or weed control at 560 g/ha ([1]; 336 h, 14 DAA) [%] | pest or weed control at 280 g/ha ([1]; 504 h, 21 DAA) [%] | pest or weed control at 560 g/ha ([1]; 504 h, 21 DAA) [%] | pest or weed control at 280 g/ha ([2]; 168 h, 280 g ae/ha, 7 DAA) [%] | pest or weed control at 280 g/ha ([2]; 336 h, 280 g ae/ha, 14 DAA) [%] | pest or weed control at 560 g/ha ([2]; 336 h, 560 g ae/ha, 14 DAA) [%] | pest or weed control at 560 g/ha ([2]; 504 h, 560 g ae/ha, 21 DAA) [%] | pest or weed control at 560 g/ha ([3]; 168 h, 7 DAA) [%] | pest or weed control at 560 g/ha ([3]; 336 h, 14 DAA) [%] | pest or weed control at 280 g/ha ([3]; 504 h, 21 DAA) [%] | pest or weed control at 560 g/ha ([3]; 504 h, 21 DAA) [%] | pest or weed control at 280 g/ha ([4]; 168 h, 7 DAA) [%] | pest or weed control at 560 g/ha ([4]; 168 h, 7 DAA) [%] | pest or weed control at 280 g/ha ([4]; 336 h, 14 DAA) [%] | pest or weed control at 560 g/ha ([4]; 336 h, 14 DAA) [%] | pest or weed control at 280 g/ha ([4]; 504 h, 21 DAA) [%] | pest or weed control at 560 g/ha ([4]; 504 h, 21 DAA) [%] | other results
1 | O=C(COc1ccc(Cl)cc1Cl)Oc1cncnc1 [Compound E14, Pyrimidin-5-yl 2-(2,4-dichlorophenoxy)acetate] | 82.5 | 77.5 | 92.5 | 98.5 | 100 | 99.5 | 89 | 90 | 97 | 100 | 67.5 | 77.5 | 97.5 | 97.5 | 75 | 85 | 92.5 | 98 | 96 | 99 | Ave. AMATA, percent reduction in plant size relative to the untreated control ([2]; 280 g ae/ha, 21 DAA): 92.5%; Ave. AMATA, percent reduction in plant size relative to the untreated control ([2]; 560 g ae/ha, 7 DAA): 98.5%; AVE. ABUTH, percent reduction in plant size relative to the untreated control ([3]; 7 DAA): 65%; AVE. ABUTH, percent reduction in plant size relative to the untreated control ([3]; 14 DAA): 65%; TGA Data (rate of weight loss, volatility) [5]: 0.0575 µg/min; pest or weed control at 280 g/ha ([6]; 168 h, 7 DAA): 80%; pest or weed control at 560 g/ha ([6]; 168 h, 7 DAA): 77.5%; pest or weed control at 280 g/ha ([6]; 336 h, 14 DAA): 90%; pest or weed control at 560 g/ha ([6]; 336 h, 14 DAA): 92.5%; pest or weed control at 280 g/ha ([6]; 504 h, 21 DAA): 95%; pest or weed control at 560 g/ha ([6]; 504 h, 21 DAA): 100%; pest or weed control at 280 g/ha ([7]; 168 h, 7 DAA): 78.3%; pest or weed control at 560 g/ha ([7]; 168 h, 7 DAA): 81.2%; pest or weed control at 280 g/ha ([7]; 336 h, 14 DAA): 86%; pest or weed control at 560 g/ha ([7]; 336 h, 14 DAA): 92.7%; pest or weed control at 280 g/ha ([7]; 504 h, 21 DAA): 96.2%; pest or weed control at 560 g/ha ([7]; 504 h, 21 DAA): 99.2%
2 | O=C(COc1ccc(Cl)cc1Cl)O/N=C/c1ccncc1 [Compound A30] | 85 | 96.5 | 90 | 97.5 | 100 | 100 | 75 | 96 | 93.5 | 99 | 80 | 96.5 | 87.5 | 99.5 | 87.5 | 80 | 100 | 100 | 99 | 94.5 | pest or weed control at 560 g/ha ([2]; 168 h, 560 g ae/ha, 7 DAA): 94%; pest or weed control at 280 g/ha ([2]; 504 h, 280 g ae/ha, 21 DAA): 92.5%; pest or weed control at 280 g/ha ([3]; 168 h, 7 DAA): 62.5%; pest or weed control at 280 g/ha ([3]; 336 h, 14 DAA): 77.5%; TGA Data (rate of weight loss, volatility) [5]: 0.9679 µg/min; pest or weed control at 280 g/ha ([6]; 168 h, 7 DAA): 80%; pest or weed control at 560 g/ha ([6]; 168 h, 7 DAA): 80%; pest or weed control at 280 g/ha ([6]; 336 h, 14 DAA): 94%; pest or weed control at 560 g/ha ([6]; 336 h, 14 DAA): 90%; pest or weed control at 280 g/ha ([6]; 504 h, 21 DAA): 98%; pest or weed control at 560 g/ha ([6]; 504 h, 21 DAA): 100%; pest or weed control at 280 g/ha ([7]; 168 h, 7 DAA): 78%; pest or weed control at 560 g/ha ([7]; 168 h, 7 DAA): 86.1%; pest or weed control at 280 g/ha ([7]; 336 h, 14 DAA): 91.5%; pest or weed control at 560 g/ha ([7]; 336 h, 14 DAA): 95.5%; pest or weed control at 280 g/ha ([7]; 504 h, 21 DAA): 95.4%; pest or weed control at 560 g/ha ([7]; 504 h, 21 DAA): 98.6%
3 | O=C(COc1ccc(Cl)cc1Cl)Nc1cc[nH]n1 [Compound D21] | 75 | 85 | 70 | 92.5 | 99.5 | 100 | 72.5 | 88 | 90 | 100 | 47.5 | 57.5 | 47.5 | 75 | 82.5 | 80 | 100 | 100 | 95 | 98 | pest or weed control at 560 g/ha ([2]; 168 h, 560 g ae/ha, 7 DAA): 90%; pest or weed control at 280 g/ha ([2]; 504 h, 280 g ae/ha, 21 DAA): 67.5%; pest or weed control at 280 g/ha ([3]; 168 h, 7 DAA): 32.5%; pest or weed control at 280 g/ha ([3]; 336 h, 14 DAA): 37.5%; TGA Data (rate of weight loss, volatility) [5]: 0.07078 µg/min; pest or weed control at 280 g/ha ([6]; 168 h, 7 DAA): 82.5%; pest or weed control at 560 g/ha ([6]; 168 h, 7 DAA): 80%; pest or weed control at 280 g/ha ([6]; 336 h, 14 DAA): 95%; pest or weed control at 560 g/ha ([6]; 336 h, 14 DAA): 92.5%; pest or weed control at 280 g/ha ([6]; 504 h, 21 DAA): 92.5%; pest or weed control at 560 g/ha ([6]; 504 h, 21 DAA): 96%; pest or weed control at 280 g/ha ([7]; 168 h, 7 DAA): 69%; pest or weed control at 560 g/ha ([7]; 168 h, 7 DAA): 76.5%; pest or weed control at 280 g/ha ([7]; 336 h, 14 DAA): 78.1%; pest or weed control at 560 g/ha ([7]; 336 h, 14 DAA): 86.5%; pest or weed control at 280 g/ha ([7]; 504 h, 21 DAA): 80.4%; pest or weed control at 560 g/ha ([7]; 504 h, 21 DAA): 93.8%
